The results in this text go back to ChEMBL document CHEMBL1201862, “PubChem BioAssay data set” (2004).

Some test systems named below: CCRF-CEM; HCT-116; HOP-62; HOP-92; Malme-3M; NCI-H23; NCI-H522; OVCAR-3; OVCAR-4; RXF 393; SK-MEL-5; SNB-75; SR; SW-620; TK-10; U-251; HCT-15; SK-MEL-2; NCI/ADR-RES.
What all share (experiment): NCI-60 cell line screen, 48 h

Molecules are shown by their SMILES.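 96-well plates; 48 h exposure; 5 concentrations. Endpoints by linear interpolation between flanking doses. Not reached: highest tested concentration assigned. GI50: concentration for 50% inhibition of growth.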 Active and inactive are the calls of the source. Rule as the data show it: active = GI50 up to about 1.1 µM and inactive = higher.

As to `Cc1nc2ccccc2c(=O)n1NC(=O)c1ccc([N+](=O)[O-])cc1`, the GI50 in the experiment on CCRF-CEM, in the experiment with HCT-116, in the experiment with HOP-62, in the experiment with HOP-92, in the experiment on Malme-3M and with NCI-H23 was > 100 µM (inactive) each time. In addition, the GI50 in the experiment with NCI-H522, with OVCAR-3, with OVCAR-4, with RXF 393, with SK-MEL-5 and in the experiment on SNB-75 was > 100 µM (inactive) in each case. Further, the GI50 with SR, in the experiment with SW-620, in the experiment on TK-10 and with U-251 was > 100 µM (inactive) each time.

Take `C=C1C(=O)O[C@H]2C[C@@H]1[C@@H](O)[C@H](O)[C@@H](C)CCCC(C)=CCC[C@@]2(C)O`: the GI50 with CCRF-CEM was > 100 µM (inactive); with HCT-116 it was 16.1 µM (inactive); with HCT-15 it was 22.9 µM; with HOP-62 it was 24.3 µM (inactive); in the experiment on HOP-92 it was 12.4 µM (inactive); in the experiment on Malme-3M, 13 µM (inactive). The GI50 was 18.1 µM (inactive) in the experiment on NCI-H23; 4.24 µM (inactive) in the experiment on NCI-H522; 15.1 µM (inactive) with OVCAR-3; 21.9 µM (inactive) in the experiment on OVCAR-4; 22.7 µM (inactive) with RXF 393; 21.6 µM (inactive) in the experiment with SK-MEL-2. In addition, the GI50 in the experiment with SK-MEL-5 is 14.3 µM (inactive); in the experiment on SNB-75, 45.5 µM (inactive); in the experiment on SR, 39.7 µM (inactive); with SW-620, > 10 µM (inactive); in the experiment with TK-10, 14.9 µM (inactive); in the experiment on U-251, 24.7 µM (inactive).

Take `Nc1ccc2nc(Nc3ccc(Cl)c(Cl)c3)cnc2c1`: the GI50 is 1.11 µM (active) in the experiment on CCRF-CEM; 18.1 µM (inactive) in the experiment on HCT-116; 16.6 µM in the experiment with HCT-15; 18.9 µM (inactive) with HOP-62; 18.5 µM (inactive) in the experiment with Malme-3M; 22.4 µM (inactive) in the experiment with NCI-H23. The GI50 in the experiment on NCI-H522 was 6.37 µM (inactive); in the experiment on OVCAR-3, 16.9 µM (inactive); in the experiment with OVCAR-4, 17 µM (inactive); in the experiment with SK-MEL-2, 20 µM (inactive); in the experiment with SK-MEL-5 it was 37.2 µM (inactive); in the experiment with SNB-75, 82.6 µM (inactive). The GI50 is 2.44 µM (inactive) in the experiment on SR, 17.9 µM (inactive) with SW-620, 19.2 µM (inactive) in the experiment with TK-10 and 19.4 µM (inactive) in the experiment with U-251.

Take `CCCCCCCCOP(=O)(O)OP(=O)(O)OCC1OC(n2ccc(N)nc2=O)C(O)C1O` (stereo unspecified): the GI50 was > 100 µM (inactive) in the experiment with CCRF-CEM; > 100 µM (inactive) in the experiment with HCT-116; more than 100 µM in the experiment with HCT-15; > 100 µM (inactive) with HOP-62; > 100 µM (inactive) in the experiment on HOP-92; > 100 µM (inactive) with Malme-3M. For the same molecule, the GI50 with NCI-H23, in the experiment on NCI/ADR-RES, in the experiment with OVCAR-3, with OVCAR-4, in the experiment on RXF 393 and in the experiment with SK-MEL-2 was > 100 µM (inactive) in each case. The GI50 with SK-MEL-5, in the experiment with SNB-75, with SW-620, in the experiment on TK-10 and in the experiment on U-251 was > 100 µM (inactive) each time.

As for `O=[N+]([O-])c1nccn1CC1OC(n2ccnc2[N+](=O)[O-])C(O)C(O)C1O` (stereo unspecified), the GI50 in the experiment with CCRF-CEM, with HCT-116, with HOP-62, in the experiment on HOP-92, in the experiment on Malme-3M and in the experiment on NCI-H23 was > 100 µM (inactive) in each case. Besides, the GI50 with RXF 393, in the experiment with SK-MEL-2, in the experiment with SK-MEL-5, in the experiment on SNB-75, with SR and in the experiment with SW-620 was > 100 µM (inactive) each time. The GI50 in the experiment with TK-10 and in the experiment on U-251 was > 100 µM (inactive) in each case.
